# Laboratory results published in US20170037446A1, “METHOD FOR THE MICROBIOLOGICAL DETERMINATION OF TRACES OF A[…] LOW VOLUME BIOLOGICAL SAMPLES” (UNIVERSIDAD DE SANTIAGO DE CHILE, priority 2013, published 2017).
# Assay: Pharmacokinetic study of minocycline in CSF of rats, quantified by the microbiological method with 4PL curve fit
# Type: in vivo
# Conditions: normal Sprague-Dawley rats, intra CSF injection of 1 mg/mL MC solution
# Description: A curve representing the percentage of bacterial growth inhibition versus antibiotic concentration applied to each well was also obtained.. Subsequently, using a curve fit analysis called “Four Parameter Curve Logistic (4PL)”, the values of antibiotic concentrations in the biological sample were obtained.
# Cerebrospinal fluid (CSF) collection: It was collected by transcutaneous cisternal magna puncture. Minocycline injections were performed by the same route.
# Curve fitting: Four Parameter Logistic Curve (4PL) analysis was applied to minocycline antibiotic obtained from FIG. 1:
# Minocycline (MC), an antibiotic belonging to the family of tetracyclines, was used to carry out pharmacokinetic studies of CSF in Sprague-Dawley rats. Briefly, normal rats were injected via intra CSF an MC solution of 1 mg/mL, for subsequent sampling of CSF at time zero, 1, 10 and 18 hours. […] At 18 hours it is still possible to detect a concentration of 69 ng/mL (FIG. 4).
smiles,measurement,setting,value
CN(C)c1ccc(O)c2c1C[C@H]1C[C@H]3[C@H](N(C)C)C(O)=C(C(N)=O)C(=O)[C@@]3(O)C(O)=C1C2=O [Minocycline],detection of MC in CSF,"CSF sampled at time zero, 1, 10 and 18 hours",detected at all times
same,concentration at 18 h,"rat, cerebrospinal fluid (CSF), other: intra CSF (transcutaneous cisternal magna puncture), CSF sampled at 18 hours (FIG. 4)",69 ng/mL
